According to patent US9102678B2, “Compounds and methods for inhibiting mitotic progression” (Millennium Pharmaceuticals, Inc., priority 2004, dated 2015):
pIC50: −log10 of the molar value.

Molecular target: T1, recombinant murine Aurora A enzyme (Mus musculus, UniProt P97477)
T1 construct: hexahistidine (His6) (N); made in house; host or cells: insect cells, baculovirus (Bac-to-Bac, Invitrogen)
Test: Aurora A DELFIA Kinase Assay
Type: biochemical
Settings: not given

T1 sequence (P97477 whole entry): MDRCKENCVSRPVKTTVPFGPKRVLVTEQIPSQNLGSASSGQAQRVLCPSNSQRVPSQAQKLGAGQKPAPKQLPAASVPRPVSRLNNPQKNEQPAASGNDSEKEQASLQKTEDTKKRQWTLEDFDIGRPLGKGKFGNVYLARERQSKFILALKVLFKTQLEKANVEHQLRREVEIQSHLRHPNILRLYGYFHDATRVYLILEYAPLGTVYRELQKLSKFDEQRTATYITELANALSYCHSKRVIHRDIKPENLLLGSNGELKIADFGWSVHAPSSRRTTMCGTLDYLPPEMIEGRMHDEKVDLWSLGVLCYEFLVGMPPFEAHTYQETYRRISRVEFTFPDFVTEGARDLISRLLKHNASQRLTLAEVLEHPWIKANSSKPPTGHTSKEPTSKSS

Row | SMILES | pIC50
1 | CC1N=C(c2c(F)cccc2F)c2cc(Cl)ccc2-c2nc(Nc3ccc(C(=O)O)cc3)ncc21 (centres unmarked) [Compound I-371, 4-{[9-chloro-7-(2,6-difluorophenyl)-5-methyl-5H-pyrimido[5,4-d][2]benzazepin-2-yl]amino}benzoic acid] | ≥ 7.00

Same assay, conditions: mouse Aurora A, 250 μM ATP; threshold less than or equal to 100 nM; read-out: IC50

Row | SMILES | pIC50
2 | CN(C)CC(=O)Nc1ccc(Nc2ncc3c(n2)-c2ccc(Cl)cc2C(c2c(F)cccc2F)=NC3)cc1 [Compound I-307, N-(4-{[9-chloro-7-(2,6-difluorophenyl)-5H-pyrimido[5,4-d][2]benzazepin-2-yl]amino}phenyl)-2-(dimethylamino)acetamide] | ≥ 7.00
3 | O=C(O)C1CNCCN1C(=O)c1ccc(Nc2ncc3c(n2)-c2ccc(Cl)cc2C(c2c(F)cccc2F)=NC3)cc1 (centres unmarked) [Compound I-219, 1-(4-{[9-chloro-7-(2,6-difluorophenyl)-5H-pyrimido[5,4-d][2]benzazepin-2-yl]amino}benzoyl)piperazine-2-carboxylic acid] | ≥ 7.00
4 | CN1CCN(CCCNC(=O)Cc2cccc(Nc3ncc4c(n3)-c3ccc(Cl)cc3C(c3ccccc3F)=NC4)c2)CC1 [Compound I-25, 2-{3-[9-Chloro-7-(2-fluoro-phenyl)-5H-benzo[c]pyrimido[4,5-e]azepin-2-ylamino]-phenyl}-N-[3-(4-methyl-piperazin-1-yl)-propyl]-acetamide] | ≥ 7.00
5 | O=C(O)c1ccc(Nc2ncc3c(n2)-c2ccc(Cl)cc2C(c2ccccc2Cl)=NC3)cc1 [Compound I-53, 4-[9-Chloro-7-(2-chloro-phenyl)-5H-benzo[c]pyrimido[4,5-e]azepin-2-ylamino]-benzoic acid] | ≥ 7.00
6 | O=C(O)C1CCCN1C(=O)c1ccc(Nc2ncc3c(n2)-c2ccc(Cl)cc2C(c2ccccc2F)=NC3)cc1 (centres unmarked) [Compound I-112, 1-{4-[9-Chloro-7-(2-fluoro-phenyl)-5H-benzo[c]pyrimido[4,5-e]azepin-2-ylamino]-benzoyl}-pyrrolidine-2-carboxylic acid] | ≥ 7.00
7 | COc1cccc(F)c1C1=NCc2cnc(Nc3ccc(C(=O)N4CC(C)NC(C)C4)cc3)nc2-c2ccc(Cl)cc21 (centres unmarked) [Compound I-177, 9-Chloro-N-{4-[(3,5-dimethylpiperazin-1-yl)carbonyl]phenyl}-7-(2-fluoro-6-methoxyphenyl)-5H-pyrimido[5,4-d][2]benzazepin-2-amine] | ≥ 7.00
8 | CN1CCN(C(=O)c2cccc(Nc3ncc4c(n3)-c3ccc(Cl)cc3C(c3ccccc3F)=NC4)c2)CC1 [Compound I-163, {3-[9-Chloro-7-(2-fluoro-phenyl)-5H-benzo[c]pyrimido[4,5-e]azepin-2-ylamino]-phenyl}-(4-methyl-piperazin-1-yl)-methanone] | ≥ 7.00
9 | NC1CCN(C(=O)c2ccc(Nc3ncc4c(n3)-c3ccc(Cl)cc3C(c3c(F)cccc3F)=NC4)cc2)C1 (centres unmarked) [Compound I-196, (3-Amino-pyrrolidin-1-yl)-{4-[9-chloro-7-(2,6-difluoro-phenyl)-5H-benzo[c]pyrimido[4,5-e]azepin-2-ylamino]-phenyl}-methanone] | ≥ 7.00
10 | CN(C)CCNC(=O)c1ccc(Nc2ncc3c(n2)-c2ccc(Cl)cc2C(c2ccccc2F)=NC3)cc1 [Compound I-4, 4-[9-Chloro-7-(2-fluoro-phenyl)-5H-benzo[c]pyrimido[4,5-e]azepin-2-ylamino]-N-(2-dimethylamino-ethyl)-benzamide] | ≥ 7.00
11 | NC1CCN(C(=O)c2ccc(Nc3ncc4c(n3)-c3ccc(Cl)cc3C(c3ncccc3F)=NC4)cc2)CC1 [Compound I-304, N-{4[(4-aminopiperidin-1-yl)carbonyl]phenyl}-9-chloro-7-(3-fluoropyridin-2-yl)-5H-pyrimido[5,4-d][2]benzazepin-2-amine] | ≥ 7.00
12 | Cc1ccc2c(c1)C(c1ccccc1F)=NCc1cnc(Nc3ccc(C(=O)NCCN4CCOCC4)cc3)nc1-2 [Compound I-148, 4-[7-(2-Fluoro-phenyl)-9-methyl-5H-benzo[c]pyrimido[4,5-e]azepin-2-ylamino]-N-(2-morpholin-4-yl-ethyl)-benzamide] | ≥ 7.00

Results, then the molecule that gave them:

Row | pIC50 | SMILES
13 | ≥ 7.00 | COc1ccccc1C1=NCc2cnc(Nc3ccc(C(=O)N4CCNC(C)C4)cc3)nc2-c2ccc(Cl)cc21 (centres unmarked) [Compound I-329, 9-chloro-7-(2-methoxyphenyl)-N-{4-[(3-methylpiperazin-1-yl)carbonyl]phenyl}-5H-pyrimido[5,4-d][2]benzazepin-2-amine]
14 | ≥ 7.00 | NC(=O)C1(N)CCN(C(=O)c2ccc(Nc3ncc4c(n3)-c3ccc(Cl)cc3C(c3c(F)cccc3F)=NC4)cc2)CC1 [Compound I-350, 4-amino-1-(4-{[9-chloro-7-(2,6-difluorophenyl)-5H-pyrimido[5,4-d][2]benzazepin-2-yl]amino}benzoyl)piperidine-4-carboxamide]
15 | ≥ 7.00 | O=C(c1ccc(Nc2ncc3c(n2)-c2ccc(Cl)cc2C(c2ccccc2F)=NC3)cc1)N1CCN(CCN2CCCC2)CC1 [Compound I-171, 9-Chloro-7-(2-fluorophenyl)-N-(4-{[4-(2-pyrrolidin-1-ylethyl)piperazin-1-yl]carbonyl}phenyl)-5H-pyrimido[5,4-d][2]benzazepin-2-amine]
16 | ≥ 7.00 | CN1CCN(C(=O)Cc2ccc(Nc3ncc4c(n3)-c3ccc(Cl)cc3C(c3ccccc3F)=NC4)cc2)CC1 [Compound I-145, 2-{4-[9-Chloro-7-(2-fluoro-phenyl)-5H-benzo[c]pyrimido[4,5-e]azepin-2-ylamino]-phenyl}-1-(4-methyl-piperazin-1-yl)-ethanone]
17 | ≥ 7.00 | CN(C)CCCN1CCN(C(=O)c2ccc(Nc3ncc4c(n3)-c3ccc(Cl)cc3C(c3ccccc3F)=NC4)cc2)CC1 [Compound I-210, 9-chloro-N-[4-({4-[3-(dimethylamino)propyl]piperazin-1-yl}carbonyl)phenyl]-7-(2-fluorophenyl)-5H-pyrimido[5,4-d][2]benzazepin-2-amine]
18 | ≥ 7.00 | CC1CN(C(=O)c2ccc(Nc3ncc4c(n3)-c3ccc(Cl)cc3C(c3c(F)cccc3F)=NC4)cc2)CC(C)N1 (centres unmarked) [Compound I-175, 9-Chloro-7-(2,6-difluorophenyl)-N-{4-[(3,5-dimethylpiperazin-1-yl)carbonyl]phenyl}-5H-pyrimido[5,4-d][2]benzazepin-2-amine]
19 | ≥ 7.00 | CC1CN(C(=N)c2ccc(Nc3ncc4c(n3)-c3ccc(Cl)cc3C(c3c(F)cccc3F)=NC4)cc2)CC(C)N1 (centres unmarked) [Compound I-251, [9-Chloro-7-(2,6-difluoro-phenyl)-5H-benzo[c]pyrimido[4,5-e]azepin-2-yl]-{4-[(3,5-dimethyl-piperazin-1-yl)-imino-methyl]-phenyl}-amine]
20 | ≥ 7.00 | NC1CCCN(C(=O)c2ccc(Nc3ncc4c(n3)-c3ccc(Cl)cc3C(c3c(F)cccc3F)=NC4)cc2)C1 (centres unmarked) [Compound I-221]
21 | ≥ 7.00 | O=C(c1ccc(Nc2ncc3c(n2)-c2ccc(Cl)cc2C(c2ccccc2F)=NC3)cc1)N1CCN(CCN2CCCCC2)CC1 [Compound I-182, {4-[9-Chloro-7-(2-fluoro-phenyl)-5H-benzo[c]pyrimido[4,5-e]azepin-2-ylamino]-phenyl}-[4-(2-piperidin-1-yl-ethyl)-piperazin-1-yl]-methanone]
22 | ≥ 7.00 | Cc1cc(NS(=O)(=O)c2ccc(Nc3ncc4c(n3)-c3ccc(Cl)cc3C(c3ccccc3Cl)=NC4)cc2)no1 [Compound I-69, 4-[9-Chloro-7-(2-chloro-phenyl)-5H-benzo[c]pyrimido[4,5-e]azepin-2-ylamino]-N-(5-methyl-isoxazol-3-yl)-benzenesulfonamide]
23 | ≥ 7.00 | CCOC(=O)C(N)CCNC(=O)c1ccc(Nc2ncc3c(n2)-c2ccc(Cl)cc2C(c2c(F)cccc2F)=NC3)cc1 (centres unmarked) [Compound I-300, ethyl 2-amino-4-[(4-{[9-chloro-7-(2,6-difluorophenyl)-5H-pyrimido[5,4-d][2]benzazepin-2-yl]amino}benzoyl)amino]butanoate]
